The test system of this assay is Escherichia coli ATCC 25922. Description: Minimum inhibitory concentration (MIC), CLSI broth micro-dilution, E. coli. The class given is cell-based. As to conditions: Escherichia coli. Summed up: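 Antibacterial potency is measured as MIC by the CLSI broth dilution method. Bacteria at OD600 0.0005 in Tween-80-supplemented cation-adjusted Mueller Hinton broth face ten twofold compound dilutions for 22 h at 35° C.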
On the technique in general: Broth dilution looks for growth in wells or tubes with falling amounts of substance.

Where [1] appears, read: ATCC25922, Table 6, cation adjusted Mueller Hinton Broth + 0.002% Tween-80, 35° C., 22 hours.

These results are taken from patent publication US20260274892A1, “MACROCYCLIC BROAD SPECTRUM ANTIBIOTICS” (RQx Pharmaceuticals, Inc., priority 2017, published 2026).

In general, MIC refers to the smallest concentration in the dilution series that meets the test's criterion for growth inhibition.

As for `Cc1c(C(=O)N[C@@H](CCN)C(=O)N(C)[C@@H]2C(=O)N[C@@H](C)C(=O)N[C@H](C(=O)NCC#N)Cc3ccc(OCCN)c(c3)-c3cc2ccc3OCCN)cnn(-c2ccc(C(C)(C)C)cc2)c1=O` (racemic) [Compound 387, rac-(8S,11S,14S)-3,18-bis(2-aminoethoxy)-N-(cyanomethyl)-11-methyl-14-[methyl-[rac-(2S)-4-amino-2-[[1-(4-tert-butylphenyl)-5-methyl-6-oxo-pyridazine-4-carbonyl]amino]butanoyl]amino]-10,13-dioxo-9,12-diazatricyclo[13.3.1.12,6]icosa-1(18),2(20),3,5,15(19),16-hexaene-8-carboxamide], the MIC under setting [1] was 8 µM.

For `C[C@@H]1NC(=O)[C@@H](N(C)C(=O)[C@H](CCN)NC(=O)N2CCC(c3ccc(C(C)(C)C)cc3)CC2)c2ccc(OCCN)c(c2)-c2cc(ccc2OCCN)C[C@@H](C(=O)NCC#N)NC1=O` (racemic) [Compound 390, rac-(8S,11S,14S)-3,18-bis(2-aminoethoxy)-N-(cyanomethyl)-11-methyl-14-[methyl-[rac-(2S)-4-amino-2-[[4-(4-tert-butylphenyl)piperidine-1-carbonyl]amino]butanoyl]amino]-10,13-dioxo-9,12-diazatricyclo[13.3.1.12,6]icosa-1(18),2(20),3,5,15(19),16-hexaene-8-carboxamide], the MIC under setting [1] was found to be 8 µM.

For `C[C@@H]1NC(=O)[C@@H](N(C)C(=O)[C@H](CCN)NC(=O)c2cc([N+](=O)[O-])c(-c3ccc(C(C)(C)C)cc3)nc2N)c2ccc(OCCN)c(c2)-c2cc(ccc2OCCN)C[C@@H](C(=O)NCC#N)NC1=O` (racemic) [Compound 415, rac-(8S,11S,14S)-3,18-bis(2-aminoethoxy)-N-(cyanomethyl)-11-methyl-14-[methyl-[rac-(2S)-4-amino-2-[[2-amino-6-(4-tert-butylphenyl)-5-nitro-pyridine-3-carbonyl]amino]butanoyl]amino]-10,13-dioxo-9,12-diazatricyclo[13.3.1.12,6]icosa-1(18),2(20),3,5,15(19),16-hexaene-8-carboxamide], the MIC under setting [1] turned out to be 1.5 µM.

On to `CC(C)Cc1ccc(-c2ncc(C(=O)N[C@@H](CCN)C(=O)N(C)[C@@H]3C(=O)N[C@@H](C)C(=O)N[C@H](C(=O)NCC#N)Cc4ccc(OCCN)c(c4)-c4cc3ccc4OCCN)c(C(F)F)n2)cc1` (racemic) [Compound 418, rac-(8S,11S,14S)-3,18-bis(2-aminoethoxy)-N-(cyanomethyl)-11-methyl-14-[methyl-[rac-(2S)-4-amino-2-[[4-(difluoromethyl)-2-(4-isobutylphenyl)pyrimidine-5-carbonyl]amino]butanoyl]amino]-10,13-dioxo-9,12-diazatricyclo[13.3.1.12,6]icosa-1(18),2(20),3,5,15(19),16-hexaene-8-carboxamide], for which, under setting [1], the MIC came to 0.064 µM.

For the compound `C[C@@H]1NC(=O)[C@@H](N(C)C(=O)[C@H](CCN)NC(=O)c2cnc(-c3ccc(C(C)(C)C)cc3)nc2OCC(=O)O)c2ccc(OCCN)c(c2)-c2cc(ccc2OCCN)C[C@@H](C(=O)NCC#N)NC1=O` (racemic) [Compound 420, 2-[2-(4-tert-butylphenyl)-5-[[rac-(1S)-3-amino-1-[methyl-[rac-(7S,10S,13S)-3,18-bis(2-aminoethoxy)-13-(cyanomethylcarbamoyl)-10-methyl-8,11-dioxo-9,12-diazatricyclo[13.3.1.12,6]icosa-1(19),2,4,6(20),15,17-hexaen-7-yl]carbamoyl]propyl]carbamoyl]pyrimidin-4-yl]oxyacetic acid], the MIC under setting [1] is 3 µM.

For the compound `Cc1nc(-c2ccc(C(C)(C)C)cc2)ncc1C(=O)N[C@@H](CCN)C(=O)N(C)[C@@H]1C(=O)N[C@@H](C)C(=O)N[C@H](C(=O)NCC#N)Cc2ccc(OCCCN)c(c2)-c2cc1ccc2OCCCN` (racemic) [Compound 433, rac-(8S,11S,14S)-3,18-bis(3-aminopropoxy)-N-(cyanomethyl)-11-methyl-14-[methyl-[rac-(2S)-4-amino-2-[[2-(4-tert-butylphenyl)-4-methyl-pyrimidine-5-carbonyl]amino]butanoyl]amino]-10,13-dioxo-9,12-diazatricyclo[13.3.1.12,6]icosa-1(18),2(20),3,5,15(19),16-hexaene-8-carboxamide], under setting [1], the minimal inhibitory concentration (MIC) amounted to 0.096 µM.

`Cc1nc(-c2ccc(OCCC(C)(C)C)cc2)nc(N)c1C(=O)N[C@@H](CCN)C(=O)N(C)[C@@H]1C(=O)N[C@@H](C)C(=O)N[C@H](C(=O)NCC#N)Cc2ccc(OCCCN)c(c2)-c2cc1ccc2OCCCN` (racemic) [Compound 436, rac-(8S,11S,14S)-3,18-bis(3-aminopropoxy)-N-(cyanomethyl)-11-methyl-14-[methyl-[rac-(2S)-4-amino-2-[[4-amino-2-[4-(3,3-dimethylbutoxy)phenyl]-6-methyl-pyrimidine-5-carbonyl]amino]butanoyl]amino]-10,13-dioxo-9,12-diazatricyclo[13.3.1.12,6]icosa-1(18),2(20),3,5,15(19),16-hexaene-8-carboxamide]: the MIC (ATCC25922, 22 h, Table 6, cation adjusted Mueller Hinton Broth + 0.002% Tween-80, 35° C.) is 0.063 µM.

For `CNC(=N)NCCOc1ccc2cc1-c1cc(ccc1OCCNC(=N)NC)[C@H](N(C)C(=O)[C@H](CCN)NC(=O)c1c(C)nc(-c3ccc(C(C)(C)C)cc3)nc1C)C(=O)N[C@@H](C)C(=O)N[C@H](C(=O)NCC#N)C2` (racemic) [Compound 441, rac-(8S,11S,14S)-N-(cyanomethyl)-11-methyl-3,18-bis[2-[(N-methylcarbamimidoyl)amino]ethoxy]-14-[methyl-[rac-(2S)-4-amino-2-[[2-(4-tert-butylphenyl)-4,6-dimethyl-pyrimidine-5-carbonyl]amino]butanoyl]amino]-10,13-dioxo-9,12-diazatricyclo[13.3.1.12,6]icosa-1(18),2(20),3,5,15(19),16-hexaene-8-carboxamide], under setting [1], the minimal inhibitory concentration (MIC) came out at 0.38 µM.

Consider `Cc1nc(-c2ccc(C(C)(C)C)cc2)ncc1C(=O)N[C@@H](CCN)C(=O)N(C)[C@@H]1C(=O)N[C@@H](C)C(=O)N[C@H](C(=O)NCC#N)Cc2ccc(OCCN(C)C)c(c2)-c2cc1ccc2OCCN(C)C` (racemic) [Compound 442, rac-(8S,11S,14S)-N-(cyanomethyl)-3,18-bis[2-(dimethylamino)ethoxy]-11-methyl-14-[methyl-[rac-(2S)-4-amino-2-[[2-(4-tert-butylphenyl)-4-methyl-pyrimidine-5-carbonyl]amino]butanoyl]amino]-10,13-dioxo-9,12-diazatricyclo[13.3.1.12,6]icosa-1(18),2(20),3,5,15(19),16-hexaene-8-carboxamide], for which the MIC under setting [1] was determined as 0.91 µM.

For `CCCCCCCCc1ccc(C(=O)N[C@@H](CCNS(N)(=O)=O)C(=O)N(C)[C@@H]2C(=O)N[C@@H](C)C(=O)N[C@H](C(=O)NCC#N)Cc3ccc(OCCN)c(c3)-c3cc2ccc3OCCN)c(C)c1` (racemic) [Compound 449, rac-(8S,11S,14S)-3,18-bis(2-aminoethoxy)-N-(cyanomethyl)-11-methyl-14-[methyl-[rac-(2S)-2-[(2-methyl-4-octyl-benzoyl)amino]-4-(sulfamoylamino)butanoyl]amino]-10,13-dioxo-9,12-diazatricyclo[13.3.1.12,6]icosa-1(18),2(20),3,5,15(19),16-hexaene-8-carboxamide], the MIC under setting [1] came to 0.5 µM.

With `CCCCCCCCc1ccc(C(=O)N[C@@H](CCCNC(N)=O)C(=O)N(C)[C@@H]2C(=O)N[C@@H](C)C(=O)N[C@H](C(=O)NCC#N)Cc3ccc(OCCN)c(c3)-c3cc2ccc3OCCN)c(C)c1` (racemic) [Compound 450, rac-(8S,11S,14S)-3,18-bis(2-aminoethoxy)-N-(cyanomethyl)-11-methyl-14-[methyl-[rac-(2S)-2-[(2-methyl-4-octyl-benzoyl)amino]-5-ureido-pentanoyl]amino]-10,13-dioxo-9,12-diazatricyclo[13.3.1.12,6]icosa-1(18),2(20),3,5,15(19),16-hexaene-8-carboxamide], the MIC under setting [1] amounted to 2.1 µM.

With `CONCC[C@H](NC(=O)c1cnc(-c2ccc(C(C)(C)C)cc2)nc1C)C(=O)N(C)[C@@H]1C(=O)N[C@@H](C)C(=O)N[C@H](C(=O)NCC#N)Cc2ccc(OCCN)c(c2)-c2cc1ccc2OCCN` (racemic) [Compound 460, rac-(8S,11S,14S)-3,18-bis(2-aminoethoxy)-N-(cyanomethyl)-11-methyl-14-[methyl-[rac-(2S)-2-[[2-(4-tert-butylphenyl)-4-methyl-pyrimidine-5-carbonyl]amino]-4-(methoxyamino)butanoyl]amino]-10,13-dioxo-9,12-diazatricyclo[13.3.1.12,6]icosa-1(18),2(20),3,5,15(19),16-hexaene-8-carboxamide], the MIC under setting [1] turned out to be 4.1 µM.

Turning to `Cc1nc(-c2ccc(C(C)(C)C)cc2)nc(C)c1C(=O)N[C@@H](COC(C)(C)C)C(=O)N[C@@H](CCN)C(=O)N(C)[C@@H]1C(=O)N[C@@H](C)C(=O)N[C@H](C(=O)NCC#N)Cc2ccc(OCCN)c(c2)-c2cc1ccc2OCCN` (racemic) [Compound 466, rac-(8S,11S,14S)-3,18-bis(2-aminoethoxy)-N-(cyanomethyl)-11-methyl-14-[methyl-[rac-(2S)-4-amino-2-[[rac-(2S)-3-tert-butoxy-2-[[2-(4-tert-butylphenyl)-4,6-dimethyl-pyrimidine-5-carbonyl]amino]propanoyl]amino]butanoyl]amino]-10,13-dioxo-9,12-diazatricyclo[13.3.1.12,6]icosa-1(18),2(20),3,5,15(19),16-hexaene-8-carboxamide], the MIC under setting [1] was found to be 1.5 µM.
